Assay results: a compilation of properties of binary mixtures
Blank lines part the entries; values can stand above or below the compound they belong to.

Assay: xn = mol fraction of the nth substance listed

SMILES: CCCCCC[n+]1ccn(C)c1.F[P-](F)(F)(F)(F)F + O
- viscosity (298 K, 101 kPa, x2 = 0.1334): 452 mPa·s

SMILES: CCCCCCCCn1cc[n+](C)c1.[Cl-] + O
- speed of sound (298.15 K, 101 kPa, x2 = 0): 1721 m/s
- speed of sound (298.15 K, 101 kPa, x2 = 0.1484): 1666.7 m/s
- speed of sound (298.15 K, 101 kPa, x2 = 0.203): 1655.1 m/s
- speed of sound (298.15 K, 101 kPa, x2 = 0.5334): 1632.2 m/s
- speed of sound (298.15 K, 101 kPa, x2 = 0.6807): 1639.3 m/s
- speed of sound (298.15 K, 101 kPa, x2 = 0.8185): 1650.7 m/s
- speed of sound (298.15 K, 101 kPa, x2 = 0.9307): 1639.6 m/s
- speed of sound (298.15 K, 101 kPa, x2 = 0.9635): 1611.3 m/s

SMILES: ClCCl + CCCC[n+]1ccn(C)c1.O=S(=O)([N-]S(=O)(=O)C(F)(F)F)C(F)(F)F
- electrical conductivity (296.35 K, 100 kPa, x2 = 0.0271): 0.64 S/m
- electrical conductivity (296.35 K, 100 kPa, x2 = 0.039): 0.79 S/m
- electrical conductivity (296.35 K, 100 kPa, x2 = 0.0623): 1.1 S/m
- electrical conductivity (296.35 K, 100 kPa, x2 = 0.1129): 1.32 S/m
- electrical conductivity (296.35 K, 100 kPa, x2 = 0.2144): 1.58 S/m

SMILES: CC[n+]1ccn(C)c1.O=S(=O)([N-]S(=O)(=O)C(F)(F)F)C(F)(F)F + O
- viscosity (297.55 K, 101 kPa, x1 = 0.722): 18.2 mPa·s
- viscosity (297.55 K, 101 kPa, x1 = 0.8): 21.9 mPa·s
- viscosity (297.55 K, 101 kPa, x1 = 0.941): 28.9 mPa·s
- viscosity (297.55 K, 101 kPa, x1 = 1): 36.3 mPa·s

- viscosity (313.15 K, 101 kPa, x1 = 0.0438): 2.533 mPa·s
SMILES: CCCC[P+](CCCC)(CCCC)CCCC.[Cl-] + O

SMILES: O=C(O)CC(O)(CC(=O)O)C(=O)O + C[N+](C)(C)Cc1ccccc1.[Cl-]
- electrical conductivity (303.11 K, 101 kPa, x2 = 0.5): 0.0002 S/m
- electrical conductivity (308.2 K, 101 kPa, x2 = 0.5): 0.0005 S/m
- electrical conductivity (313.21 K, 101 kPa, x2 = 0.5): 0.0011 S/m
- viscosity (317.97 K, 101 kPa, x2 = 0.5): 152000 mPa·s
- electrical conductivity (318.06 K, 101 kPa, x2 = 0.5): 0.0019 S/m
- viscosity (323.1 K, 101 kPa, x2 = 0.5): 89000 mPa·s
- electrical conductivity (323.14 K, 101 kPa, x2 = 0.5): 0.0032 S/m
- viscosity (332.88 K, 101 kPa, x2 = 0.5): 28100 mPa·s
- electrical conductivity (333.12 K, 101 kPa, x2 = 0.5): 0.0095 S/m

SMILES: CCCC[N+]1(C)CCCC1.O=S(=O)([N-]S(=O)(=O)C(F)(F)F)C(F)(F)F + OCCOCCOCCOCCO
- viscosity (298.15 K, 101 kPa, x2 = 0): 70.5 mPa·s

- viscosity (302.2 K, 101.3 kPa, x2 = 0.6576): 324 mPa·s
- viscosity (305.5 K, 101.3 kPa, x2 = 0.6576): 196 mPa·s
- viscosity (310.4 K, 101.3 kPa, x2 = 0.6576): 96 mPa·s
- viscosity (311.4 K, 101.3 kPa, x2 = 0.6576): 85 mPa·s
- viscosity (314.3 K, 101.3 kPa, x2 = 0.6576): 54 mPa·s
- viscosity (317.5 K, 101.3 kPa, x2 = 0.6576): 37 mPa·s
- viscosity (322.4 K, 101.3 kPa, x2 = 0.6576): 21 mPa·s
SMILES: O=C([O-])C(F)(F)F.[Na+] + CCCCNC(N)=O

- viscosity (318.15 K, 100 kPa, x1 = 0.333): 205 mPa·s
SMILES: CCCCCCC[N+](CCCCCCC)(CCCCCCC)CCCCCCC.[Br-] + CCCCCCCCCC(=O)O

SMILES: CCCCCCCCn1cc[n+](C)c1C.F[P-](F)(F)(F)(F)F + CCCCCCCC[n+]1ccn(C)c1.F[P-](F)(F)(F)(F)F
- viscosity (303.15 K, 100 kPa, x2 = 0.5): 440 mPa·s
- viscosity (313.15 K, 100 kPa, x2 = 0.5): 241 mPa·s
- viscosity (323.15 K, 100 kPa, x2 = 0.5): 144 mPa·s

- speed of sound (293.15 K, 101.3 kPa, x1 = 0.333): 1915.5 m/s
- speed of sound (298.15 K, 101.3 kPa, x1 = 0.333): 1903.4 m/s
- speed of sound (303.15 K, 101.3 kPa, x1 = 0.333): 1891.8 m/s
- speed of sound (308.15 K, 101.3 kPa, x1 = 0.333): 1879.3 m/s
- speed of sound (313.15 K, 101.3 kPa, x1 = 0.333): 1869.1 m/s
SMILES: CC[N+]1(C)CCCC1.[Br-] + OCCCCCCO

SMILES: c1ccccc1 + CCCCCCCCn1cc[n+](C)c1.O=S(=O)([N-]S(=O)(=O)C(F)(F)F)C(F)(F)F
- viscosity (293 K, 101 kPa, x2 = 0): 0.641 mPa·s

SMILES: CC[n+]1ccn(C)c1.[Cl-] + O
- viscosity (373 K, 100 kPa, x1 = 0.8): 20 mPa·s
- viscosity (373 K, 100 kPa, x1 = 0.9524): 27 mPa·s

SMILES: CCCCCC[n+]1ccn(C)c1.[Br-] + O
- viscosity (298.15 K, 100 kPa, x2 = 0.9487): 2.88 mPa·s

SMILES: CCn1cc[nH+]c1.O=S(=O)([N-]S(=O)(=O)C(F)(F)F)C(F)(F)F + O
- viscosity (297.55 K, 101 kPa, x1 = 0.359): 11.2 mPa·s
- viscosity (297.55 K, 101 kPa, x1 = 0.667): 24.1 mPa·s
- viscosity (297.55 K, 101 kPa, x1 = 0.8): 32.7 mPa·s
- viscosity (297.55 K, 101 kPa, x1 = 0.941): 50.8 mPa·s
- viscosity (297.55 K, 101 kPa, x1 = 1): 57.1 mPa·s

- viscosity (303.15 K, 100 kPa, x1 = 0.0833): 69.7 mPa·s
- viscosity (313.15 K, 100 kPa, x1 = 0.0833): 50.2 mPa·s
- viscosity (333.15 K, 100 kPa, x1 = 0.0833): 31 mPa·s
- viscosity (353.15 K, 100 kPa, x1 = 0.0833): 21.35 mPa·s
SMILES: [Cl-].c1ccc(C[P+](c2ccccc2)(c2ccccc2)c2ccccc2)cc1 + OCCO

- speed of sound (298.15 K, 100 kPa, x2 = 0.38): 1411 m/s
- speed of sound (303.15 K, 100 kPa, x2 = 0.38): 1404.5 m/s
- electrical conductivity (303.15 K, 101 kPa, x1 = 0.5): 2.49 S/m
- electrical conductivity (303.15 K, 101 kPa, x1 = 0.57): 2.12 S/m
- electrical conductivity (303.15 K, 101 kPa, x1 = 0.6): 1.91 S/m
- electrical conductivity (303.15 K, 101 kPa, x1 = 0.67): 1.63 S/m
- electrical conductivity (306.15 K, 101 kPa, x2 = 0.5): 2.66 S/m
- electrical conductivity (306.15 K, 101 kPa, x2 = 0.588): 0.982 S/m
- electrical conductivity (306.15 K, 101 kPa, x2 = 0.625): 0.663 S/m
- speed of sound (313.15 K, 100 kPa, x2 = 0.38): 1391.8 m/s
- speed of sound (318.15 K, 100 kPa, x2 = 0.38): 1385.6 m/s
SMILES: [Cl][Al]([Cl])[Cl] + CC[n+]1ccn(C)c1.[Cl-]

SMILES: CC[N+](CC)(CC)CC.[Cl-] + O
- electrical conductivity (323 K, 100 kPa, x1 = 0.2): 4.1 S/m

SMILES: CCCCCCCCn1cc[n+](C)c1.[Br-] + O
- viscosity (298.15 K, 100 kPa, x2 = 0.9008): 31.3 mPa·s
- viscosity (298.15 K, 100 kPa, x2 = 0.9487): 7.96 mPa·s

- viscosity (298.15 K, 100 kPa, x1 = 0.0942): 133 mPa·s
- viscosity (298.15 K, 100 kPa, x1 = 0.1083): 128 mPa·s
- viscosity (303.15 K, 100 kPa, x2 = 0.8862): 119.5 mPa·s
SMILES: CC(CC(C)(C)C)CP(=O)([O-])CC(C)CC(C)(C)C.CCCCCCCCCCCCCC[P+](CCCCCC)(CCCCCC)CCCCCC + O

- speed of sound (313.15 K, 100 kPa, x1 = 0.3333): 1870.1 m/s
SMILES: CC[N+]1(C)CCCC1.[Br-] + OCC(O)CO

SMILES: CCCC[n+]1ccn(C)c1.[Br-] + O
- viscosity (298.15 K, 100 kPa, x2 = 0.9487): 2.21 mPa·s

- viscosity (298.15 K, 100 kPa, x1 = 0.0172): 1.2 mPa·s
- viscosity (298.15 K, 100 kPa, x1 = 0.0301): 1.28 mPa·s
- viscosity (298.15 K, 100 kPa, x1 = 0.0456): 1.76 mPa·s
- viscosity (298.15 K, 100 kPa, x1 = 0.0985): 6.58 mPa·s
SMILES: CC(O)C(=O)[O-].CN(C)CCOCC[NH+](C)C + O

SMILES: CC[n+]1ccn(C)c1.[Cl-] + OCC(O)CO
- viscosity (298.15 K, 101 kPa, x1 = 0.667): 345 mPa·s
- viscosity (303.15 K, 101 kPa, x1 = 0.667): 243 mPa·s
- viscosity (323.15 K, 101 kPa, x1 = 0.667): 75.6 mPa·s
- viscosity (333.15 K, 101 kPa, x1 = 0.667): 47.2 mPa·s

SMILES: CCCCCCCCCC[n+]1ccn(C)c1.[Cl-] + O
- electrical conductivity (298.15 K, 101.3 kPa, x1 = 0.0171): 3.25 S/m

SMILES: CCCC[n+]1ccn(C)c1.O=S(=O)([N-]S(=O)(=O)C(F)(F)F)C(F)(F)F + CO
- viscosity (298 K, 100 kPa, x1 = 0.1): 1.693 mPa·s
- viscosity (298 K, 100 kPa, x1 = 0.3834): 8.225 mPa·s
- viscosity (298 K, 100 kPa, x1 = 0.4974): 12.54 mPa·s
- viscosity (298 K, 100 kPa, x1 = 0.5875): 16.78 mPa·s
- viscosity (298 K, 100 kPa, x1 = 0.7988): 30.69 mPa·s
- viscosity (298 K, 100 kPa, x1 = 0.8995): 38.93 mPa·s

SMILES: CCCC[NH3+].O=[N+]([O-])[O-] + O
- viscosity (303.15 K, 101 kPa, x2 = 0.3495): 22.35 mPa·s
- viscosity (308.15 K, 101 kPa, x2 = 0.3495): 19.25 mPa·s
- viscosity (313.15 K, 101 kPa, x2 = 0.3495): 16.75 mPa·s

SMILES: CCCCC(CC)COC(=O)CC(C(=O)OCC(CC)CCCC)S(=O)(=O)[O-].CCCC[n+]1ccn(C)c1 (stereo unspecified) + O
- viscosity (313.15 K, 99.6 kPa, x1 = 0.8695): 692 mPa·s
- viscosity (323.15 K, 99.6 kPa, x1 = 0.8695): 363 mPa·s
- viscosity (333.15 K, 99.6 kPa, x1 = 0.8695): 207 mPa·s

- electrical conductivity (298 K, 101 kPa, x1 = 0.0002): 0.475 S/m
- electrical conductivity (298 K, 101 kPa, x1 = 0.0004): 0.658 S/m
- electrical conductivity (298 K, 101 kPa, x1 = 0.001): 0.921 S/m
- electrical conductivity (298 K, 101 kPa, x1 = 0.0016): 1.45 S/m
- electrical conductivity (298 K, 101 kPa, x1 = 0.004): 2.04 S/m
- electrical conductivity (298 K, 101 kPa, x1 = 0.006): 2.14 S/m
- electrical conductivity (298 K, 101 kPa, x1 = 0.008): 2.28 S/m
- electrical conductivity (298 K, 101 kPa, x1 = 0.01): 2.32 S/m
SMILES: CC[N+](CC)(CC)CCCS(=O)(=O)O.F[B-](F)(F)F + O
